Measurements: the supplement of paper PMC11061612

What was measured:
AZD1775 = compound: C=CCn1c(=O)c2cnc(Nc3ccc(N4CCN(C)CC4)cc3)nc2n1-c1cccc(C(C)(C)O)n1 [AZD1775]; conditions: max 3 µM
Outline: (§1)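 In 1536-well plates, cancer cell lines in 7.5 μl DMEM/F12 or RPMI with 10% FBS spent 24 hours at 37°C and 5% CO2 and were then dosed for 72 hours with final DMSO typically 0.2%. Viability was read by CellTiter-Glo 2.0 luminescence and scaled between blank-well and DMSO-well means. The single-agent IC50 was fitted from dose responses using a logistic curve in a non-linear mixed effects model, and that logistic curve had two parameters.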

Trametinib = compound: CC(=O)Nc1cccc(-n2c(=O)n(C3CC3)c(=O)c3c(Nc4ccc(I)cc4F)n(C)c(=O)c(C)c32)c1 [Trametinib]; conditions: max 1 µM
Outline: as §1

AZD7648 = compound: Cc1cc2ncnn2cc1Nc1ncc2c(n1)n(C1CCOCC1)c(=O)n2C [AZD7648]; conditions: max 10 µM
Outline: as §1

5-Fluorouracil = compound: O=c1[nH]cc(F)c(=O)[nH]1 [5-Fluorouracil]; conditions: max 20 µM
Outline: as §1

Gemcitabine = compound: Nc1ccn([C@@H]2O[C@H](CO)[C@@H](O)C2(F)F)c(=O)n1 [Gemcitabine]; conditions: max 0.3 µM
Outline: as §1

Etoposide = compound: COc1cc([C@@H]2c3cc4c(cc3[C@@H](O[C@@H]3O[C@@H]5CO[C@@H](C)O[C@H]5[C@H](O)[C@H]3O)[C@H]3COC(=O)[C@H]23)OCO4)cc(OC)c1O [Etoposide]; conditions: max 10 µM
Outline: as §1

AZD5363 = compound: C1CN(CCC1(C(=O)N[C@@H](CCO)C2=CC=C(C=C2)Cl)N)C3=NC=NC4=C3C=CN4 [AZD5363]; conditions: max 10 µM
Outline: as §1

Taselisib = compound: Cc1nc(-c2cn3c(n2)-c2ccc(-c4cnn(C(C)(C)C(N)=O)c4)cc2OCC3)n(C(C)C)n1 [Taselisib]; conditions: max 10 µM
Outline: as §1

Palbociclib = compound: CC(=O)c1c(C)c2cnc(Nc3ccc(N4CCNCC4)cn3)nc2n(C2CCCC2)c1=O [Palbociclib]; conditions: max 10 µM
Outline: as §1

SN-38 = compound: CCc1c2c(nc3ccc(O)cc13)-c1cc3c(c(=O)n1C2)COC(=O)[C@]3(O)CC [SN-38]; conditions: max 0.3 µM
Outline: as §1

SG3199 = compound: CC1=CN2[C@@H](C1)C=NC3=CC(=C(C=C3C2=O)OC)OCCCCCOC4=C(C=C5C(=C4)N=C[C@@H]6CC(=CN6C5=O)C)OC [SG3199]; conditions: max 0.001 µM
Outline: as §1

Gefitinib = compound: COc1cc2ncnc(Nc3ccc(F)c(Cl)c3)c2cc1OCCCN1CCOCC1 [Gefitinib]; conditions: max 10 µM
Outline: as §1

AZD8186 = compound: C[C@@H](Nc1cc(F)cc(F)c1)c1cc(C(=O)N(C)C)cc2c(=O)cc(N3CCOCC3)oc12 [AZD8186]; conditions: max 10 µM
Outline: as §1

Dasatinib = compound: CC1=C(C(=CC=C1)Cl)NC(=O)C2=CN=C(S2)NC3=CC(=NC(=N3)C)N4CCN(CC4)CCO [Dasatinib]; conditions: max 2 µM
Outline: as §1

Doxorubicin = compound: COc1cccc2c1C(=O)c1c(O)c3c(c(O)c1C2=O)C[C@@](O)(C(=O)CO)C[C@@H]3O[C@H]1C[C@H](N)[C@H](O)[C@H](C)O1 [Doxorubicin]; conditions: max 1 µM
Outline: as §1

SRA737 = compound: N#Cc1cnc(Nc2cc(NC[C@H]3CNCCO3)c(C(F)(F)F)cn2)cn1 [SRA737]; conditions: max 10 µM
Outline: as §1

AZD5991 = compound: Cc1c2c(nn1C)CSCc1cc(n(C)n1)CSc1cc(c3ccccc3c1)OCCCc1c(C(=O)O)n(C)c3c-2c(Cl)ccc13 [AZD5991]; conditions: max 1 µM
Outline: as §1

Crizotinib = compound: C[C@@H](Oc1cc(-c2cnn(C3CCNCC3)c2)cnc1N)c1c(Cl)ccc(F)c1Cl [Crizotinib]; conditions: max 10 µM
Outline: as §1

MK-2206 = compound: NC1(c2ccc(-c3nc4ccn5c(=O)[nH]nc5c4cc3-c3ccccc3)cc2)CCC1 [MK-2206]; conditions: max 10 µM
Outline: as §1

AZD2811 = compound: CCN(CCO)CCCOc1ccc2c(Nc3cc(CC(=O)Nc4cccc(F)c4)[nH]n3)ncnc2c1 [AZD2811]; conditions: max 1 µM
Outline: as §1

AZD5153 = compound: COc1nnc2ccc(N3CCC(c4ccc(OCCN5CCN(C)C(=O)[C@H]5C)cc4)CC3)nn12 [AZD5153]; conditions: max 1 µM
Outline: as §1

AZD6738 = compound: C[C@@H]1COCCN1C2=NC(=NC(=C2)C3(CC3)[S@](=N)(=O)C)C4=C5C=CNC5=NC=C4 [AZD6738]; conditions: max 10 µM
Outline: as §1

[1] = compound: O=C(Nc1ccc2[nH]nc(-c3ccncc3)c2c1)[C@@H]1CCN(CC(=O)N2CCN(c3ccc(-c4ncccn4)cc3)CC2)C1; conditions: max 5 µM
Outline: as §1

AZD1390 = compound: CC(C)n1c(=O)n(C)c2cnc3cc(F)c(-c4ccc(OCCCN5CCCCC5)nc4)cc3c21 [AZD1390]; conditions: max 0.3 µM
Outline: as §1

AZD4320 = compound: CN(CC[C@H](CSC1=CC=CC=C1)NC2=C(C=C(C=C2)S(=O)(=O)NC(=O)C3=CC=C(C=C3)N4CCC(CC4)[C@H](C5=CC=CC=C5C6=CC=C(C=C6)Cl)O)S(=O)(=O)C(F)(F)F)CCO [AZD4320]; conditions: max 1 µM
Outline: as §1

Lapatinib = compound: CS(=O)(=O)CCNCc1ccc(-c2ccc3ncnc(Nc4ccc(OCc5cccc(F)c5)c(Cl)c4)c3c2)o1 [Lapatinib]; conditions: max 10 µM
Outline: as §1

Savolitinib = compound: C[C@@H](c1ccc2nccn2c1)n1nnc2ncc(-c3cnn(C)c3)nc21 [Savolitinib]; conditions: max 1 µM
Outline: as §1

AZD0156 = compound: CN(C)CCCOc1ccc(-c2ccc3ncc4c(c3c2)n(C2CCOCC2)c(=O)n4C)cn1 [AZD0156]; conditions: max 3 µM
Outline: as §1

Olaparib = compound: O=C(c1cc(Cc2n[nH]c(=O)c3ccccc23)ccc1F)N1CCN(C(=O)C2CC2)CC1 [Olaparib]; conditions: max 10 µM
Outline: as §1

Carboplatin = compound: C1CC(C1)(C(=O)[O-])C(=O)[O-].N.N.[Pt+2] [Carboplatin]; conditions: max 10 µM
Outline: as §1

Alisertib = compound: COc1cc(Nc2ncc3c(n2)-c2ccc(Cl)cc2C(c2c(F)cccc2OC)=NC3)ccc1C(=O)O [Alisertib]; conditions: max 10 µM
Outline: as §1

Paclitaxel = compound: CC(=O)O[C@H]1C(=O)[C@@]2(C)[C@H]([C@H](OC(=O)c3ccccc3)[C@]3(O)C[C@H](OC(=O)[C@H](O)[C@@H](NC(=O)c4ccccc4)c4ccccc4)C(C)=C1C3(C)C)[C@]1(OC(C)=O)CO[C@@H]1C[C@@H]2O [Paclitaxel]; conditions: max 3 µM
Outline: as §1

Venetoclax = compound: CC1(C)CCC(CN2CCN(c3ccc(C(=O)NS(=O)(=O)c4ccc(NCC5CCOCC5)c([N+](=O)[O-])c4)c(Oc4cnc5[nH]ccc5c4)c3)CC2)=C(c2ccc(Cl)cc2)C1 [Venetoclax]; conditions: max 1 µM
Outline: as §1

Selumetinib = compound: Cn1cnc2c(F)c(Nc3ccc(Br)cc3Cl)c(C(=O)NOCCO)cc21 [Selumetinib]; conditions: max 10 µM
Outline: as §1

Prexasertib = compound: COc1cccc(OCCCN)c1-c1cc(Nc2cnc(C#N)cn2)n[nH]1 [Prexasertib]; conditions: max 1 µM
Outline: as §1

Row | Cell Line | IC50, cell viability 72 h (AZD1775) | IC50, cell viability 72 h (Trametinib) | IC50, cell viability 72 h (AZD7648) | IC50, cell viability 72 h (5-Fluorouracil) | IC50, cell viability 72 h (Gemcitabine) | IC50, cell viability 72 h (Etoposide) | IC50, cell viability 72 h (AZD5363) | IC50, cell viability 72 h (Taselisib) | IC50, cell viability 72 h (Palbociclib) | IC50, cell viability 72 h (SN-38) | IC50, cell viability 72 h (SG3199) | IC50, cell viability 72 h (Gefitinib) | IC50, cell viability 72 h (AZD8186) | IC50, cell viability 72 h (Dasatinib) | IC50, cell viability 72 h (Doxorubicin) | IC50, cell viability 72 h (SRA737) | IC50, cell viability 72 h (AZD5991) | IC50, cell viability 72 h (Crizotinib) | IC50, cell viability 72 h (MK-2206) | IC50, cell viability 72 h (AZD2811) | IC50, cell viability 72 h (AZD5153) | IC50, cell viability 72 h (AZD6738) | IC50, cell viability 72 h [1] | IC50, cell viability 72 h (AZD1390) | IC50, cell viability 72 h (AZD4320) | IC50, cell viability 72 h (Lapatinib) | IC50, cell viability 72 h (Savolitinib) | IC50, cell viability 72 h (AZD0156) | IC50, cell viability 72 h (Olaparib) | IC50, cell viability 72 h (Carboplatin) | IC50, cell viability 72 h (Alisertib) | IC50, cell viability 72 h (Paclitaxel) | IC50, cell viability 72 h (Venetoclax) | IC50, cell viability 72 h (Selumetinib) | IC50, cell viability 72 h (Prexasertib)
1 | NCI-H64 (Small Cell Lung Carcinoma) | 0.236 µM | > 1 µM | > 10 µM | > 20 µM | > 0.3 µM | > 10 µM | > 10 µM | > 10 µM | > 10 µM | > 0.3 µM | > 0.001 µM | > 10 µM | > 10 µM | > 2 µM | > 1 µM | 3.84 µM | > 1 µM | 5.17 µM | > 10 µM | 0.597 µM | > 1 µM | 3.17 µM | > 5 µM | > 0.3 µM | 0.23 µM | > 10 µM | > 1 µM | > 3 µM | > 10 µM | > 10 µM | 4.9 µM | 0.527 µM | > 1 µM | > 10 µM | 0.0196 µM
2 | NCI-H1581 (Non-Small Cell Lung Carcinoma) | 1.77 µM | 0.545 µM | > 10 µM | > 20 µM | 0.195 µM | 5.32 µM | > 10 µM | > 10 µM | > 10 µM | 0.0795 µM | > 0.001 µM | > 10 µM | > 10 µM | > 2 µM | > 1 µM | > 10 µM | 0.163 µM | > 10 µM | > 10 µM | > 1 µM | > 1 µM | > 10 µM | 3.23 µM | > 0.3 µM | > 1 µM | > 10 µM | > 1 µM | > 3 µM | > 10 µM | > 10 µM | 2.06 µM | 0.00382 µM | > 1 µM | > 10 µM | > 1 µM
3 | NCI-H1666 (Lung Adenocarcinoma) | > 3 µM | 0.103 µM | > 10 µM | > 20 µM | > 0.3 µM | > 10 µM | > 10 µM | 3.2 µM | > 10 µM | 0.238 µM | > 0.001 µM | > 10 µM | > 10 µM | > 2 µM | > 1 µM | > 10 µM | > 1 µM | > 10 µM | > 10 µM | > 1 µM | > 1 µM | > 10 µM | > 5 µM | > 0.3 µM | > 1 µM | > 10 µM | > 1 µM | > 3 µM | > 10 µM | > 10 µM | > 10 µM | 0.794 µM | > 1 µM | 7.17 µM | > 1 µM
4 | NCI-H2066 (Squamous Cell Lung Carcinoma) | > 3 µM | > 1 µM | > 10 µM | > 20 µM | > 0.3 µM | > 10 µM | > 10 µM | 3.92 µM | > 10 µM | > 0.3 µM | > 0.001 µM | > 10 µM | > 10 µM | > 2 µM | > 1 µM | > 10 µM | > 1 µM | > 10 µM | > 10 µM | > 1 µM | > 1 µM | > 10 µM | > 5 µM | > 0.3 µM | > 1 µM | > 10 µM | > 1 µM | > 3 µM | > 10 µM | > 10 µM | > 10 µM | 0.32 µM | > 1 µM | > 10 µM | > 1 µM
5 | NY (Osteosarcoma) | 0.538 µM | > 1 µM | > 10 µM | > 20 µM | 0.041 µM | > 10 µM | > 10 µM | > 10 µM | > 10 µM | 0.0161 µM | > 0.001 µM | > 10 µM | > 10 µM | > 2 µM | > 1 µM | 3.44 µM | > 1 µM | > 10 µM | > 10 µM | > 1 µM | > 1 µM | > 10 µM | > 5 µM | > 0.3 µM | > 1 µM | > 10 µM | > 1 µM | > 3 µM | > 10 µM | > 10 µM | > 10 µM | 0.00726 µM | > 1 µM | > 10 µM | 0.115 µM
